The values below come from patent US20070010671A1, “Novel quinazoline derivatives and methods of treatment related to the use thereof” (priority 2003, published 2007).

Each structure is given as a SMILES string.

In the assay the target is MCH receptor (Homo sapiens, UniProt Q99705). The experiment in a line: High throughput functional screening FLIPR/FDSS6000: inhibition of MCH-evoked intracellular Ca2+ changes. The format is cell-based. The note with it: class by percent of control at 10^-7 M or IC50. In short, it runs like this: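 Fluo4 fluorescence (Ex 488 nm, Em 530 nm) tracked MCH-evoked [Ca2+]i transients over 290 s by FLIPR or FDSS. Cells carried a constitutively active, non-endogenous receptor version. Compounds were added 3 min before a 50 nM MCH challenge.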

Consider `Cc1cccc(CNC(=S)N[C@H]2CC[C@@H](Nc3nc(N(C)C)c4ccccc4n3)CC2)c1` [compound 310, N-(cis-4-{[4-(dimethylamino)quinazolin-2-yl]amino}cyclohexyl)-N′-(3-methylbenzyl)thiourea], for which the class is 2 (Class 2: The value of percent of control at 10^−7 M was from 40% to 60% or the value of IC50 was from 50 nM to 200 nM.). Take `CN(C)c1nc(N[C@H]2CC[C@@H](NC(=S)Nc3ccc(Br)c(Cl)c3)CC2)nc2ccccc12` [compound 311]: the class is listed as 3 (Class 3: The value of percent of control at 10^−7 M was more than 60% or the value of IC50 was more than 200 nM.). In the case of `Cc1cc(NC(=S)N[C@H]2CC[C@@H](Nc3nc(N(C)C)c4ccccc4n3)CC2)ccc1Br` [compound 312] it was 3 (Class 3: The value of percent of control at 10^−7 M was more than 60% or the value of IC50 was more than 200 nM.); in that of `CN(C)c1nc(N[C@H]2CC[C@@H](NC(=S)Nc3ccc(C(=O)O)cc3)CC2)nc2ccccc12` [compound 313], 3 (Class 3: The value of percent of control at 10^−7 M was more than 60% or the value of IC50 was more than 200 nM.); in that of `CN(C)c1nc(N[C@H]2CC[C@@H](NC(=S)Nc3ccc(Cl)cc3C(F)(F)F)CC2)nc2ccccc12` [compound 314, N-[4-chloro-2-(trifluoromethyl)phenyl]-N′-(cis-4-{[4-(dimethylamino)quinazolin-2-yl]amino}cyclohexyl)thiourea], 1 (Class 1: The value of percent of control at 10^−7 M was less than 40% or the value of IC50 was less than 50 nM.). In the case of `CCCCCCCCCCc1ccc(NC(=S)N[C@H]2CC[C@@H](Nc3nc(N(C)C)c4ccccc4n3)CC2)cc1` [compound 315] it was 3 (Class 3: The value of percent of control at 10^−7 M was more than 60% or the value of IC50 was more than 200 nM.); in that of `Cc1cc(F)ccc1NC(=S)N[C@H]1CC[C@@H](Nc2nc(N(C)C)c3ccccc3n2)CC1` [compound 316, N-(cis-4-{[4-(dimethylamino)quinazolin-2-yl]amino}cyclohexyl)-N′-(4-fluoro-2-methylphenyl)thiourea], 1 (Class 1: The value of percent of control at 10^−7 M was less than 40% or the value of IC50 was less than 50 nM.). In the case of `CN(C)c1nc(N[C@H]2CC[C@@H](NC(=S)Nc3ccc(Oc4ccc([N+](=O)[O-])cc4)cc3)CC2)nc2ccccc12` [compound 317] it was 3 (Class 3: The value of percent of control at 10^−7 M was more than 60% or the value of IC50 was more than 200 nM.); in that of `CN(C)c1nc(N[C@H]2CC[C@@H](NC(=S)Nc3ccc(Sc4ccc([N+](=O)[O-])cc4)cc3)CC2)nc2ccccc12` [compound 318], 3 (Class 3: The value of percent of control at 10^−7 M was more than 60% or the value of IC50 was more than 200 nM.). With `CN(C)c1nc(N[C@H]2CC[C@@H](NC(=S)Nc3ccc(S(N)(=O)=O)cc3)CC2)nc2ccccc12` [compound 319], the class is 3 (Class 3: The value of percent of control at 10^−7 M was more than 60% or the value of IC50 was more than 200 nM.). With `COc1ccc(NC(=S)N[C@H]2CC[C@@H](Nc3nc(N(C)C)c4ccccc4n3)CC2)c(C)c1` [compound 320, N-(cis-4-{[4-(dimethylamino)quinazolin-2-yl]amino}cyclohexyl)-N′-(4-methoxy-2-methylphenyl)thiourea], the class is given as 1 (Class 1: The value of percent of control at 10^−7 M was less than 40% or the value of IC50 was less than 50 nM.).

Take `COc1ccc(C(=O)NC(=S)N[C@H]2CC[C@@H](Nc3nc(N(C)C)c4ccccc4n3)CC2)cc1` [compound 321]: the class is recorded as 3 (Class 3: The value of percent of control at 10^−7 M was more than 60% or the value of IC50 was more than 200 nM.).

Take `Cc1ccc(CCNC(=S)N[C@H]2CC[C@@H](Nc3nc(N(C)C)c4ccccc4n3)CC2)cc1` [compound 322]: the class is given as 3 (Class 3: The value of percent of control at 10^−7 M was more than 60% or the value of IC50 was more than 200 nM.). The figure for `CN(C)c1nc(N[C@H]2CC[C@@H](NC(=S)Nc3ccc(Oc4ccccc4)cc3)CC2)nc2ccccc12` [compound 323] is 3 (Class 3: The value of percent of control at 10^−7 M was more than 60% or the value of IC50 was more than 200 nM.); for `COc1cc(OC)c(NC(=S)N[C@H]2CC[C@@H](Nc3nc(N(C)C)c4ccccc4n3)CC2)cc1Cl` [compound 324, N-(5-chloro-2,4-dimethoxyphenyl)-N′-(cis-4-{[4-(dimethylamino)quinazolin-2-yl]amino}cyclohexyl)thiourea] it is 1 (Class 1: The value of percent of control at 10^−7 M was less than 40% or the value of IC50 was less than 50 nM.); for `CN(C)c1nc(N[C@H]2CC[C@@H](NC(=S)Nc3ccc4c(c3)CCC4)CC2)nc2ccccc12` [compound 325, N-(2,3-dihydro-1H-inden-5-yl)-N′-(cis-4-{[4-(dimethylamino)quinazolin-2-yl]amino}cyclohexyl)thiourea] it is 2 (Class 2: The value of percent of control at 10^−7 M was from 40% to 60% or the value of IC50 was from 50 nM to 200 nM.). The figure for `CN(C)c1nc(N[C@H]2CC[C@@H](NC(=S)NC(=O)/C=C/c3ccccc3)CC2)nc2ccccc12` [compound 326] is 3 (Class 3: The value of percent of control at 10^−7 M was more than 60% or the value of IC50 was more than 200 nM.); for `C/C=C/CNC(=S)N[C@H]1CC[C@@H](Nc2nc(N(C)C)c3ccccc3n2)CC1` [compound 327] it is 3 (Class 3: The value of percent of control at 10^−7 M was more than 60% or the value of IC50 was more than 200 nM.); for `CN(C)c1nc(N[C@H]2CC[C@@H](NC(=S)NC3CCCCCC3)CC2)nc2ccccc12` [compound 328, N-cycloheptyl-N′-(cis-4-{[4-(dimethylamino)quinazolin-2-yl]amino}cyclohexyl)thiourea] it is 2 (Class 2: The value of percent of control at 10^−7 M was from 40% to 60% or the value of IC50 was from 50 nM to 200 nM.). In the case of `C[C@@H](NC(=S)N[C@H]1CC[C@@H](Nc2nc(N(C)C)c3ccccc3n2)CC1)c1ccccc1` [compound 329, N-(cis-4-{[4-(dimethylamino)quinazolin-2-yl]amino}cyclohexyl)-N′-[(1R)-1-phenylethyl]thiourea] it was 1 (Class 1: The value of percent of control at 10^−7 M was less than 40% or the value of IC50 was less than 50 nM.); in that of `CCCCOC(=O)c1ccccc1NC(=O)N[C@H]1CC[C@@H](Nc2nc(N(C)C)c3ccccc3n2)CC1` [compound 330], 3 (Class 3: The value of percent of control at 10^−7 M was more than 60% or the value of IC50 was more than 200 nM.). For the molecule `COC(=O)c1cc(NC(=O)N[C@H]2CC[C@@H](Nc3nc(N(C)C)c4ccccc4n3)CC2)cc(C(=O)OC)c1` [compound 331], the class is listed as 3 (Class 3: The value of percent of control at 10^−7 M was more than 60% or the value of IC50 was more than 200 nM.). The figure for `CN(C)c1nc(N[C@H]2CC[C@@H](NC(=O)Nc3ccc(OC(F)(F)F)cc3)CC2)nc2ccccc12` [compound 332] is 3 (Class 3: The value of percent of control at 10^−7 M was more than 60% or the value of IC50 was more than 200 nM.); for `Cc1cc(Br)cc(C)c1NC(=O)N[C@H]1CC[C@@H](Nc2nc(N(C)C)c3ccccc3n2)CC1` [compound 333, N-(4-bromo-2,6-dimethylphenyl)-N′-(cis-4-{[4-(dimethylamino)quinazolin-2-yl]amino}cyclohexyl)urea] it is 1 (Class 1: The value of percent of control at 10^−7 M was less than 40% or the value of IC50 was less than 50 nM.). The figure for `Cc1cc(Br)ccc1NC(=O)N[C@H]1CC[C@@H](Nc2nc(N(C)C)c3ccccc3n2)CC1` [compound 334] is 1 (Class 1: The value of percent of control at 10^−7 M was less than 40% or the value of IC50 was less than 50 nM.); for `CN(C)c1nc(N[C@H]2CC[C@@H](NC(=O)Nc3ccc4c(c3)C(F)(F)OC(F)(F)O4)CC2)nc2ccccc12` [compound 335] it is 3 (Class 3: The value of percent of control at 10^−7 M was more than 60% or the value of IC50 was more than 200 nM.); for `CN(C)c1nc(N[C@H]2CC[C@@H](NC(=O)NCCc3cccs3)CC2)nc2ccccc12` [compound 337, N-(cis-4-{[4-(dimethylamino)quinazolin-2-yl]amino}cyclohexyl)-N′-[2-(2-thienyl)ethyl]urea] it is 2 (Class 2: The value of percent of control at 10^−7 M was from 40% to 60% or the value of IC50 was from 50 nM to 200 nM.). In the case of `CN(C)c1nc(N[C@H]2CC[C@@H](NC(=O)Nc3ccc4c(c3)OCCO4)CC2)nc2ccccc12` [compound 338, N-(2,3-dihydro-1,4-benzodioxin-6-yl)-N′-(cis-4-{[4-(dimethylamino)quinazolin-2-yl]amino}cyclohexyl)urea] it was 1 (Class 1: The value of percent of control at 10^−7 M was less than 40% or the value of IC50 was less than 50 nM.); in that of `CC(C)c1cc(Br)c(NC(=O)N[C@H]2CC[C@@H](Nc3nc(N(C)C)c4ccccc4n3)CC2)c(Br)c1` [compound 339, N-(2,6-dibromo-4-isopropylphenyl)-N′-(cis-4-{[4-(dimethylamino)quinazolin-2-yl]amino}cyclohexyl)urea], 1 (Class 1: The value of percent of control at 10^−7 M was less than 40% or the value of IC50 was less than 50 nM.); in that of `CN(C)c1nc(N[C@H]2CC[C@@H](NC(=O)Nc3ccccc3C#N)CC2)nc2ccccc12` [compound 340], 3 (Class 3: The value of percent of control at 10^−7 M was more than 60% or the value of IC50 was more than 200 nM.). As to `CN(C)c1nc(N[C@H]2CC[C@@H](NC(=O)Nc3cccs3)CC2)nc2ccccc12` [compound 341], the class was 3 (Class 3: The value of percent of control at 10^−7 M was more than 60% or the value of IC50 was more than 200 nM.).
